pKi: −log10 of the molar value.
Key:
human σ1 receptor = biological target: T1, human σ1 receptor (Homo sapiens, UniProt Q99720); assay: Human σ1 receptor radioligand assay; conditions: transfected HEK-293 membranes, 5 nM [3H](+)-pentazocine, 37° C. 120 minutes; + may also stand for 1-50% inhibition at 1 or 10 μM; read-out: Binding σ-1 Ki
T1 construct: expressed in transfected cells; host or cells: HEK-293
Procedure, shortened: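 Ki was derived from five test concentrations, or % inhibition was measured at a single 1 or 10 μM dose, against 5 nM [3H](+)-pentazocine. Incubation was 120 min at 37° C in 50 mM Tris-HCl pH 8 with 7 μg HEK-293 membranes, and 10 μM haloperidol set non-specific binding. Bound radioactivity was counted after filtration.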

human σ2/TMEM97 receptor = biological target: T2, human σ2/TMEM97 receptor (Homo sapiens, UniProt Q5BJF2); assay: Binding assay to human σ2/TMEM97 receptor; conditions: transfected HEK-293 membranes, 10 nM [3H]-DTG, 25° C. 120 minutes; + may also stand for 1-50% inhibition at 1 or 10 μM; read-out: Binding σ-2 Ki
T2 construct: expressed in transfected cells; host or cells: HEK-293
Procedure, shortened: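 Membranes from transfected HEK-293 cells (15 µg) were incubated with 10 nM [3H]-DTG in 50 mM Tris-HCl pH 8.0 for 120 min at 25 °C, with 10 µM haloperidol defining non-specific binding. Filtration and scintillation counting followed. Compounds tested as % inhibition at 1 or 10 µM, or at five concentrations for Ki.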

T1 sequence (Q99720 whole entry): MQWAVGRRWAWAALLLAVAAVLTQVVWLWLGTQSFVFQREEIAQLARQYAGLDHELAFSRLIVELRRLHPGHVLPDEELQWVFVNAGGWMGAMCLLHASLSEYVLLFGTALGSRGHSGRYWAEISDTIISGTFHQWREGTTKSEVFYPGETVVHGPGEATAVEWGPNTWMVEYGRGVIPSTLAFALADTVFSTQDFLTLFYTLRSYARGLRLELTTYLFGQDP
T2 sequence (Q5BJF2 whole entry): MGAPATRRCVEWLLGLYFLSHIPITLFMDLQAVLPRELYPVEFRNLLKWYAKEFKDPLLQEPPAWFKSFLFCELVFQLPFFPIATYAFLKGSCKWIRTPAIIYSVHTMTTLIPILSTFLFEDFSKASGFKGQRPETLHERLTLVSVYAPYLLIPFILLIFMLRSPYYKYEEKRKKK

Structure (SMILES)	pKi (human σ1 receptor)	pKi (human σ2/TMEM97 receptor)
O=S(=O)(N[C@@H]1CCN(Cc2ccccc2)C1)c1ccc(N2CCOCC2)nc1 [Example 3, (R)-N-(1-Benzylpyrrolidin-3-yl)-6-morpholinopyridine-3-sulfonamide]	> 7.00	< 6.00
CC(C)(C)CCN1CCC2(CCCN(S(=O)(=O)c3ccc(C(F)(F)F)nc3)C2)CC1 [Example 92, 9-(3,3-Dimethylbutyl)-2-((6-(trifluoromethyl)pyridin-3-yl)sulfonyl)-2,9-diazaspiro[5.5]undecane]	> 7.00	> 7.00
CN(CC1CCOCC1)[C@H]1CC[C@H](NS(=O)(=O)c2ccc(N3CCC4(CCCO4)CC3)nc2)CC1 [Example 177, N-((1r,4r)-4-(Methyl((tetrahydro-2H-pyran-4-yl)methyl)amino)cyclohexyl)-6-(1-oxa-8-azaspiro[4.5]decan-8-yl)pyridine-3-sulfonamide]	< 6.00	> 7.00
O=S(=O)(N[C@H]1CC[C@H](NCc2cccc(F)c2)CC1)c1ccc(N2CCOCC2)nc1 [Example 54, N-((1r,4r)-4-((3-Fluorobenzyl)amino)cyclohexyl)-6-morpholinopyridine-3-sulfonamide]	6.30 to 7.00	6.30 to 7.00
O=S(=O)(c1ccc(N2CCC(F)(F)CC2)nc1)N1CCC2(CCN(CC3CCOCC3)CC2)C1 [Example 83, 2-((6-(4,4-Difluoropiperidin-1-yl)pyridin-3-yl)sulfonyl)-8-((tetrahydro-2H-pyran-4-yl)methyl)-2,8-diazaspiro[4.5]decane]	> 7.00	> 7.00
Cc1ccc(S(=O)(=O)N2CCCC3(CCN(CCC(C)(C)C)CC3)C2)cn1 [Example 108, 9-(3,3-Dimethylbutyl)-2-((6-methylpyridin-3-yl)sulfonyl)-2,9-diazaspiro[5.5]undecane]	> 7.00	> 7.00
CC(C)(C)CCN1CCC2(CC1)CCN(S(=O)(=O)c1ccc(N3CCC(F)(F)CC3)nc1)C2 [Example 80, 2-((6-(4,4-Difluoropiperidin-1-yl)pyridin-3-yl)sulfonyl)-8-(3,3-dimethylbutyl)-2,8-diazaspiro[4.5]decane]	> 7.00	> 7.00
N#Cc1cccc(CN2CC[C@@H](NS(=O)(=O)c3ccc(N4CCOCC4)nc3)C2)c1 [Example 40, (R)-N-(1-(3-Cyanobenzyl)pyrrolidin-3-yl)-6-morpholinopyridine-3-sulfonamide]	6.30 to 7.00	< 6.00
C[C@@H]1CN(Cc2ccccc2)C[C@H]1NS(=O)(=O)c1ccc(N2CCOCC2)nc1 [Example 14, N-((3S,4R)-1-Benzyl-4-methylpyrrolidin-3-yl)-6-morpholinopyridine-3-sulfonamide]	> 7.00	< 6.00
CC(C)(C)CCN1CCC2(CCCN(S(=O)(=O)c3ccc(N4CCC5(CCCO5)CC4)nc3)C2)CC1 [Example 98, 8-(5-((9-(3,3-Dimethylbutyl)-2,9-diazaspiro[5.5]undecan-2-yl)sulfonyl)pyridin-2-yl)-1-oxa-8-azaspiro[4.5]decane]	> 7.00	> 7.00
O=S(=O)(c1ccc(N2CCOCC2)nc1)N1CCC[C@H](CNCc2ccc(O)nc2)C1 [Example 64, (R)-5-((((1-((6-Morpholinopyridin-3-yl)sulfonyl)piperidin-3-yl)methyl)amino)methyl)pyridin-2-ol]	< 6.00	6.30 to 7.00
CC(C)(C)CCN1CCC2(CC1)CCN(S(=O)(=O)c1ccc(N3CCC4(CC3)COC4)nc1)CC2 [Example 72, 7-(5-((9-(3,3-Dimethylbutyl)-3,9-diazaspiro[5.5]undecan-3-yl)sulfonyl)pyridin-2-yl)-2-oxa-7-azaspiro[3.5]nonane]	6.00 to 6.30	> 7.00
CCc1ccc(S(=O)(=O)N2CCCC3(CCN(CCC(C)(C)C)CC3)C2)cn1 [Example 111, 9-(3,3-Dimethylbutyl)-2-((6-ethylpyridin-3-yl)sulfonyl)-2,9-diazaspiro[5.5]undecane]	> 7.00	> 7.00
O=S(=O)(NC1CCN(Cc2ccc(F)cc2)CC1)c1ccc(N2CCOCC2)nc1 [Example 7, N-(1-(4-Fluorobenzyl)piperidin-4-yl)-6-morpholinopyridine-3-sulfonamide]	> 7.00	< 6.00
CC(C)(C)CCN1CCCC2(CCN(S(=O)(=O)c3ccc(-c4ccncc4)nc3)CC2)C1 [Example 115, 9-([2,4′-Bipyridin]-5-ylsulfonyl)-2-(3,3-dimethylbutyl)-2,9-diazaspiro[5.5]undecane]	> 7.00	> 7.00

Other lines, results leading:

pKi (human σ1 receptor)	pKi (human σ2/TMEM97 receptor)	Structure (SMILES)
> 7.00	> 7.00	CC(C)(C)CCN1CCC2(CC1)CCN(S(=O)(=O)c1ccc(N3CCCC3=O)nc1)C2 [Example 139, 1-(5-((8-(3,3-Dimethylbutyl)-2,8-diazaspiro[4.5]decan-2-yl)sulfonyl)pyridin-2-yl)pyrrolidin-2-one]
> 7.00	> 7.00	CN(CCC(C)(C)C)C1CCN(S(=O)(=O)c2ccc(N3CCC(F)(F)CC3)nc2)CC1 [Example 168, 1-((6-(4,4-Difluoropiperidin-1-yl)pyridin-3-yl)sulfonyl)-N-(3,3-dimethylbutyl)-N-methylpiperidin-4-amine]
6.00 to 6.30	> 7.00	O=C1OCCN1c1ccc(S(=O)(=O)N2CCC3(CCN(CC4CCOCC4)CC3)CC2)cn1 [Example 128, 3-(5-((9-((Tetrahydro-2H-pyran-4-yl)methyl)-3,9-diazaspiro[5.5]undecan-3-yl)sulfonyl)pyridin-2-yl)oxazolidin-2-one]
< 6.00	6.30 to 7.00	CN(Cc1ccccc1)[C@H]1CC[C@H](NS(=O)(=O)c2ccc(N3CCOC3=O)nc2)CC1 [Example 167, N-((1 r,4r)-4-(Benzyl(methyl)amino)cyclohexyl)-6-(2-oxooxazolidin-3-yl)pyridine-3-sulfonamide]
6.30 to 7.00	< 6.00	CN(CC(C)(C)C)C1CCN(S(=O)(=O)c2ccc(N3CCOC3=O)nc2)CC1 [Example 124, 3-(5-((4-(Methyl(neopentyl)amino)pi-peridin-1-yl)sulfonyl)pyridin-2-yl)oxazolidin-2-one]
> 7.00	> 7.00	CC(C)(C)CCN1CCC2(CCCN(S(=O)(=O)c3ccc(N4CCCC4=O)nc3)C2)CC1 [Example 121, 1-(5-((9-(3,3-Dimethylbutyl)-2,9-diazaspiro[5.5]undecan-2-yl)sulfonyl)pyridin-2-yl)pyrrolidin-2-one]
> 7.00	> 7.00	CC(C)(C)CCN1CCCC2(CCN(S(=O)(=O)c3ccc(N4CCOC4=O)nc3)CC2)C1 [Example 137, 3-(5-((2-(3,3-Dimethylbutyl)-2,9-diazaspiro[5.5]undecan-9-yl)sulfonyl)pyridin-2-yl)oxazolidin-2-one]
> 7.00	> 7.00	O=C1OCCN1c1ccc(S(=O)(=O)N2CCC3(CCN(CC4CCOCC4)CC3)C2)cn1 [Example 153, 3-(5-((8-((Tetrahydro-2H-pyran-4-yl)methyl)-2,8-diazaspiro[4.5]decan-2-yl)sulfonyl)pyridin-2-yl)oxazolidin-2-one]
6.30 to 7.00	> 7.00	CN(Cc1ccccc1)C1CCN(S(=O)(=O)c2ccc(N3CCOC3=O)nc2)CC1 [Example 142, 3-(5-((4-(Benzyl(methyl)ami-no)piperidin-1-yl)sulfonyl)pyridin-2-yl)oxazolidin-2-one]

— patent publication US20240254115A1 (ACONDICIONAMIENTO TARRASENSE, priority 2021, published 2024)
